The text below walks through data of patent US4476299A, “Cyclic polyamino containing compounds having therapeutic effect and the preparation thereof” (priority 1981, dated 1984).

In one series the test system is P-388 cells. As to the kind of experiment: Antineoplastic action against implanted P-388 tumor, CDF1 mice, i.p.-i.p. (T/C %). It is filed as in vivo. The following applies: for T/C (%): Table 7, P388 (i.p.-i.p.). How it is done:
(§1) In this animal test, the antineoplastic action against the implanted tumor was examined, in lower animals in vivo, in repsect to the compounds according to the present invention, by using CDF1 mice.
(§2) To the peritoneal cavity of each group of mice consisting of six CDF1 mice per group, 10^6 /0.1 ml of P-388 cells or 10^5 /0.1 ml of L-1210 cells were implanted. […] While to the control groups of CDF1 mice, P-388 and L-1210 cells were implanted in the same manner and they were bred without administration of the compounds. […]

Series [1] can be described thus: Toxicity test: lethal dose in mice (Litchfield-Wilcoxon). The following applies: mouse, in vivo, 7 days, read-out: LD50 and 95% Confidence Limit. More on the design: species or system male 4-weeks CD-1 (ICR) mice. How it is done: With respect to the compounds of this invention, the lethal dose was determined as follows.
By using male 4-weeks CD-1 (ICR) mice consisting of 5 to 10 mice per group, the desired amount of each compound of this invention was suspended in 0.5% CMC solution and the resultant suspension was administered to each mouse intraperitoneally or intravenously. Observing the life or death as well as the general symptome during 7 days after the administration of the compounds, the value of LD50 for each compounds was estimated from the lethal population observed on the basis of the Litchfield-Wilcoxon method.

A further series has as its system CD-1 (IRC) mice. Briefly: Neuropharmacological multidimensional observation (modified Arwin method and Smith method) in mice. In kind it is in vivo, 4-weeks CD-1 (IRC) mice. The conditions noted are these: i.p., 1 to 20 mg/kg, observed every 30 minutes for 180 minutes. How it is done: In this test, other pharmacological effects which may be obtained by these compounds were investigated.
Each compound of the invention was intraperitoneally administered to 4-weeks CD-1 (IRC) mice (Nippon Charles Liver K.K.) in the dose of 1 to 20 mg/kg with using mice groups consisting of three mice per group. […] The observation was carried out according to the modified Arwin method and Smith method, i.e., neuropharmacological multidimentional observation method.
Making a comparison between the symptom observed and the pattern of the pharmacological action due to the known medicines, it has been discovered that each compound of the invention has the following pharmacological effect.

The next series relates to L-1210 cells. Briefly: Antineoplastic action against implanted L-1210 tumor, CDF1 mice, i.p.-i.p. (T/C %). It is filed as in vivo. The following applies: Table 7, L1210 (i.p.-i.p.). On the procedure:
as §1, §2

The test system of a further series is B-16 melanoma. Briefly: Antineoplastic action against B-16 melanoma, i.p.-i.p. (T/C %). It is filed as in vivo, mice. The conditions noted are these: for T/C (%): Table 7, B16 (i.p.-i.p.); for effective against B-16 melanoma: in words.
From the text: as §1
(§3) As the screening test for confirming antineoplasticity of certain compound, it is known in the art that there are two kinds of tests, one being "in vitro" test wherein carcinoma cells in propagation in a test tube are used, the other being "in vivo" test wherein lower animals implanted with carcinoma cells are used. In Japan. the "in vivo" test is usually carried out by using Ehrlich tumor, L-1210 cells, sarcoma 180 cells, Yoshida sarcoma or ascites-liver tumor as ascitic tumor and immobilized carcinoma mentioned above as fixed carcinoma. Recently, a new method for confirming the antineoplasticity has been developed, in which lymphocytic leukemia cells P-388 are used. It is known that P-388 has more strong sensitivity than L-1210. As fixed carcinoma, there may be mentioned, for example Lewis lung cancer B-16 melanoma, MM2, MOPC 104E, Colon 26, MH 134, C-1498 and the like.
(§4) The new compounds of the present invention were confirmed to be effective to the P-388 cells in the light of the screening test's results hereinbefore described.

Another series deals with MM2. Briefly: Antineoplastic action against MM2 tumor, i.p.-i.p. (T/C %). In kind it is in vivo, mice. The conditions noted are these: for T/C (%) / 60< (mice, fraction of group): Table 7, MM2 (i.p.-i.p.); for effective against MM2: in words.
From the text: as §1, §3, §4

[2] abbreviates: Mus musculus, ip, Table 6, P388, dose 10 mg/kg, i.p., read-out: T/C %, (Treatment/Control %).
[3] abbreviates: Mus musculus, P388, ip, read-out: T/C %, (Treatment/Control %).

The structures appear in SMILES notation. “Also recorded” adds a separate entry of the source. Where two headings read alike, the source gives them in different places.

Turning to `COc1ccc(CC2C(=O)NC(C)C(=O)N(C)C3Cc4ccc(cc4)Oc4cc(ccc4O)CC(C(=O)NC(C)C(=O)NC(C)C(=O)N2C)N(C)C3=O)cc1` (stereo not shown) [TPC-A], the response vs control in vivo at 10 mg/kg with P-388 cells (setting [2]) is 187%. For the same compound, in the series with P-388 cells (in words), the “antineoplastic effect / effective to P-388 cells” value was “has antineoplastic effect by itself”. The LD50 (in general, the dose at which mortality reaches 50%) at 168 h is 34 mg/kg in series [1] (intravenous) and 16 mg/kg in series [1] (ip, intraperitoneal). In addition, the Pharmacological effect estimated entry in the series with CD-1 (IRC) mice is “emetic action; also recorded: anorexigenic action; also recorded: psychotropic action; also recorded: papaverine action”.
Consider `COc1ccc(CC2C(=O)NC(C)C(=O)N(C)C3Cc4ccc(cc4)Oc4cc(ccc4OC(C)=O)CC(C(=O)NC(C)C(=O)NC(C)C(=O)N2C)N(C)C3=O)cc1` (stereo not shown) [Ex. 22, Acetic acid ester of TPC-A], for which the response vs control in vivo at 0.05 mg/kg in the series with P-388 cells (Mus musculus, ip, Table 6, P388, dose 0.05 mg/kg, i.p., read-out: T/C %, (Treatment/Control %)) turned out to be 133%. Further, in the series with P-388 cells (Mus musculus, ip, Table 6, P388, dose 0.5 mg/kg, i.p., read-out: T/C %, (Treatment/Control %)), the response vs control in vivo at 0.5 mg/kg stood at 156%. Besides, in the series with P-388 cells (Mus musculus, ip, Table 6, P388, dose 2 mg/kg, i.p., read-out: T/C %, (Treatment/Control %)), the response vs control in vivo at 2 mg/kg amounted to 169%. Also, the response vs control in vivo at 10 mg/kg with P-388 cells (setting [2]) worked out at 195%. Besides, the “T/C (%)” value is reported as 133.3% in the series on P-388 cells (0.05 mg/kg); 155.6% in the series with P-388 cells (0.5 mg/kg); 168.9% in the series on P-388 cells (2 mg/kg); 175.8% in the series with P-388 cells (5 mg/kg); 194.7% in the series on P-388 cells (10 mg/kg); 100.9% in the series on L-1210 cells (0.05 mg/kg). Moreover, the “T/C (%)” value is recorded as 110.0% in the series on L-1210 cells (0.5 mg/kg); 114.4% in the series on L-1210 cells (2 mg/kg); 120.0% in the series on L-1210 cells (5 mg/kg); 128.9% in the series on L-1210 cells (10 mg/kg); 116.9% in the series with B-16 melanoma (0.5 mg/kg); 128.5% with B-16 melanoma (2 mg/kg). The “T/C (%)” value in the series on B-16 melanoma (4 mg/kg) worked out at 147.8%; in the series with B-16 melanoma (8 mg/kg), 141.1%; in the series with MM2 (0.5 mg/kg) it was 102.5%; in the series with MM2 (2 mg/kg), 109.2%; in the series on MM2 (5 mg/kg), 117.8%; in the series on MM2 (10 mg/kg), 120.9%. Besides, in the series with B-16 melanoma, the “effective against B-16 melanoma” value is listed as “effective against B-16 melanoma”. Also, in the series with MM2, the “effective against MM2” value is on record as “effective”. Moreover, the LD50 at 168 h in series [1] (intravenous) turned out to be 20 mg/kg; in series [1] (ip, intraperitoneal), 18.4 mg/kg. The Pharmacological effect estimated entry with CD-1 (IRC) mice is given as “emetic action; also recorded: psychotropic action; also recorded: antidiuretic action”.
Take `CCCCCC(=O)Oc1ccc2cc1Oc1ccc(cc1)CC1C(=O)N(C)C(C2)C(=O)NC(C)C(=O)NC(C)C(=O)N(C)C(Cc2ccc(OC)cc2)C(=O)NC(C)C(=O)N1C` (stereo not shown) [Ex. 21, caproate of TPC-A]: in the series on P-388 cells (setting [3]), the response vs control in vivo at 0.05 mg/kg stood at 134%. The response vs control in vivo at 0.5 mg/kg in the series on P-388 cells (setting [3]) was 143%. Also, the response vs control in vivo at 2 mg/kg in the series on P-388 cells (setting [3]) was determined as 152%. The response vs control in vivo at 10 mg/kg in the series with P-388 cells (setting [3]) stood at 197%. Further, the “T/C (%)” value with P-388 cells (0.01 mg/kg) came to 133.7%; in the series with P-388 cells (0.1 mg/kg) it was 135.9%; in the series with P-388 cells (2 mg/kg), 152.2%; in the series on L-1210 cells (0.5 mg/kg) it was 115.6%; in the series on L-1210 cells (2 mg/kg), 126.6%; in the series with L-1210 cells (10 mg/kg), 67.3%. Further, the “T/C (%)” value with B-16 melanoma (0.5 mg/kg) is on record as 143.5%; in the series on B-16 melanoma (2 mg/kg), 152.0%; with B-16 melanoma (5 mg/kg), 165.5%; in the series with MM2 (0.5 mg/kg) it was 112.1%; in the series with MM2 (2 mg/kg), 127.3%; with MM2 (10 mg/kg), 93.9%. Further, the “60< (mice, fraction of group)” value in the series with MM2 (2 mg/kg) is 2/6.
Take `CCCCCCOc1ccc2cc1Oc1ccc(cc1)CC1C(=O)N(C)C(C2)C(=O)NC(C)C(=O)NC(C)C(=O)N(C)C(Cc2ccc(OC)cc2)C(=O)NC(C)C(=O)N1C` (stereo not shown) [Ex. 2, n-hexylether of the compound TPC-A]: the response vs control in vivo at 0.05 mg/kg in the series with P-388 cells (setting [3]) was 110%. Further, the response vs control in vivo at 0.5 mg/kg in the series with P-388 cells (setting [3]) stood at 137%. Besides, the response vs control in vivo at 2 mg/kg with P-388 cells (setting [3]) was 154%. The response vs control in vivo at 4 mg/kg in the series on P-388 cells (setting [3]) is 173%. For the same compound, the “T/C (%)” value was 130.4% in the series on P-388 cells (0.05 mg/kg); 143.5% in the series on P-388 cells (0.5 mg/kg); 150.0% in the series with P-388 cells (2 mg/kg); 176.1% in the series with P-388 cells (5 mg/kg); 115.6% in the series on L-1210 cells (0.5 mg/kg); 126.6% in the series on L-1210 cells (2 mg/kg). Also, the “T/C (%)” value in the series with L-1210 cells (4 mg/kg) stood at 130.9%; with B-16 melanoma (0.5 mg/kg) it was 130.5%; in the series with B-16 melanoma (2 mg/kg), 158.2%; in the series on B-16 melanoma (4 mg/kg) it was 136.2%; in the series with MM2 (0.5 mg/kg) it was 110.3%; in the series with MM2 (2 mg/kg) it was 129.3%. Besides, the “T/C (%)” value with MM2 (4 mg/kg) is 161.8%. Moreover, the “effective against B-16 melanoma” value in the series on B-16 melanoma was “effective against B-16 melanoma”. Further, the entries for the “60< (mice, fraction of group)” value with MM2 (2 mg/kg) and in the series with MM2 (4 mg/kg) were 3/6 and 1/7, respectively. Moreover, the “effective against MM2” value in the series on MM2 is “effective”.
As for `CCCCCCCCCC(=O)Oc1ccc2cc1Oc1ccc(cc1)CC1C(=O)N(C)C(C2)C(=O)NC(C)C(=O)NC(C)C(=O)N(C)C(Cc2ccc(OC)cc2)C(=O)NC(C)C(=O)N1C` (stereo not shown) [Ex. 30], in the series on P-388 cells (setting [3]), the response vs control in vivo at 0.05 mg/kg was 122%, the response vs control in vivo at 0.5 mg/kg is 146%, the response vs control in vivo at 2 mg/kg was determined as 152% and the response vs control in vivo at 10 mg/kg came out at 151%. Besides, the “effective against B-16 melanoma” value in the series on B-16 melanoma is “effective against B-16 melanoma”. The “effective against MM2” value in the series with MM2 is “effective”.
